Laboratory results reported in patent US20260215425A1, “NITRIFICATION INHIBITORS” (The University of Melbourne, priority 2022, published 2026).

Key:
[1] = molecular target: T1, hydroxylamine oxireductase (HOA) (Nitrosomonas europaea, UniProt Q50925); experiment: standard nitrification inhibition assay with NH2OH as substrate; assay type: cell-based, N. europaea; conditions: substrate NH2OH 3 mM, [inhibitor]=0.3 mM, pH 7.5, 30° C., 60 min; read-out: % Inhibition NE
T1 construct: N. europaea and N. multiformis contain naturally both enzymes; endogenous in cells; host or cells: N. europaea pure culture (whole cells in NaPB)
T1 sequence (Q50925 25-570): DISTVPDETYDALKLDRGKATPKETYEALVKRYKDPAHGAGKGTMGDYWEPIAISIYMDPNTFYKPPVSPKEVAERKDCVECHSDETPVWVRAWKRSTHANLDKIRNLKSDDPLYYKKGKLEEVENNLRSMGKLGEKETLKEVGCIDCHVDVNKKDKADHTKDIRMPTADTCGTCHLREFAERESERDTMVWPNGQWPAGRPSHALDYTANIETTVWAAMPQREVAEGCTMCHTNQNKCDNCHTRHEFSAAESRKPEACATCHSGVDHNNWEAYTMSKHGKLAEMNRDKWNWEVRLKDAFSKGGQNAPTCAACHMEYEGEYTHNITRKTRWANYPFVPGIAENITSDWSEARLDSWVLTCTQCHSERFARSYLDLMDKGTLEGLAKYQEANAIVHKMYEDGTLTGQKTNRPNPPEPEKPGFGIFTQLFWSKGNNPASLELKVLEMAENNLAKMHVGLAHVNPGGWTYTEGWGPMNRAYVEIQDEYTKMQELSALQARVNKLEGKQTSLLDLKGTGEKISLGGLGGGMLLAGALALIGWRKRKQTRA

[2] = tested on: soils B-E; experiment: soil incubation, N2O production in soils B-E
Procedure: Soil incubations were performed in three replicates. Each sample consisted of 6 g of sieved soil (2 mm). The soil was air-dried after collection and pre-incubated prior to the experiment for seven days at 50% water holding capacity (WHC). The soil was transferred to a gas chromatography vial (22 mL volume, clear glass, Macherey-Nagel, Germany) and compacted densely to allow 5.5-6.2 cm headspace. The soil in the vials was incubated for a total of 21 days at a constant temperature of 21° C. with an open lid to ensure gas circulation. The control incubations contained ‘untreated’ soil (deionized H2O only) and ‘fertiliser only’ soil ((NH4)2SO4; 50 mg kg^−1 soil) and accompanied each measurement. (NH4)2SO4 was applied as an aqueous solution ([…]) and introduced on the soil surface to mimic field conditions. Three inhibitor solutions were prepared from DMP and 4-MPT at concentrations of 0.5 mol %, 2.5 mol % and 5 mol % of applied fertiliser-N and applied on the soil surface. The soils reached 60% WHC after the treatments had been applied and were kept at that moisture level by periodically adding deionized water to compensate for evaporation losses. At the day of measurement (day 1, 3, 5, 7, 14 and 21 after fertilization) the vials were closed gas-tight with a rubber septum and aluminium lid and opened again after each measurement. The N2O emission was analysed using a gas chromatograph equipped with an electron capture detector and flame ionization detector (GC-ECD/FID; Clarus 580, Perkin Elmer). A linear regression slope was used to calculate N2O—N production rates, F, according to eqn. 5:
where ΔC/Δt represents the change of the N2O concentration over the time interval t in ppbv, V represents the headspace volume in L, M represents the molar mass of N in N2O, m represents the amount of soil in g dry weight, Vm represents the molar volume of ideal gases (22.414 L mol^−1) at 0° C. and 101.325 kPa, corrected for the gas sampler using T0 (273.15 K) and Ta (air temperature in K).

In the case of `C#CCn1cc(C)nn1` [Compound 4-MPT, 4-Methyl-1-(prop-2-yn-1yl)-1H-1,2,3-triazole], the inhibition at 300 µM [1] is reported as 28 ± 3%, the N2O production ([2]; Soil B, 0.5 mol %, Day 1) is reported as 0.058 ± 0.004 μg g^−1 soil h^−1 and the N2O production ([2]; Soil B, 0.5 mol %, Day 3) is reported as 0.009 ± 0.009 μg g^−1 soil h^−1. It also gave an N2O production ([2]; Soil B, 0.5 mol %, Day 5) of 0.000 ± 0.000 μg g^−1 soil h^−1, an N2O production ([2]; Soil B, 0.5 mol %, Day 7) of −0.013 ± 0.013 μg g^−1 soil h^−1 and an N2O production ([2]; Soil B, 0.5 mol %, Day 14) of 0.008 ± 0.008 μg g^−1 soil h^−1. For the same molecule, the N2O production ([2]; Soil B, 0.5 mol %, Day 21) was 0.011 ± 0.011 μg g^−1 soil h^−1, the N2O production ([2]; Soil B, 2.5 mol %, Day 1) was 0.007 ± 0.007 μg g^−1 soil h^−1 and the N2O production ([2]; Soil B, 2.5 mol %, Day 3) was 0.000 ± 0.000 μg g^−1 soil h^−1. The N2O production ([2]; Soil B, 2.5 mol %, Day 5) was −0.007 ± 0.007 μg g^−1 soil h^−1, the N2O production ([2]; Soil B, 2.5 mol %, Day 7) was −0.019 ± 0.019 μg g^−1 soil h^−1 and the N2O production ([2]; Soil B, 2.5 mol %, Day 14) was 0.000 ± 0.000 μg g^−1 soil h^−1. The N2O production ([2]; Soil B, 2.5 mol %, Day 21) was 0.000 ± 0.000 μg g^−1 soil h^−1, the N2O production ([2]; Soil B, 5 mol %, Day 1) was 0.000 ± 0.000 μg g^−1 soil h^−1 and the N2O production ([2]; Soil B, 5 mol %, Day 3) was 0.000 ± 0.000 μg g^−1 soil h^−1. It also gave an N2O production ([2]; Soil B, 5 mol %, Day 5) of 0.000 ± 0.000 μg g^−1 soil h^−1, an N2O production ([2]; Soil B, 5 mol %, Day 7) of −0.048 ± 0.026 μg g^−1 soil h^−1 and an N2O production ([2]; Soil B, 5 mol %, Day 14) of 0.000 ± 0.000 μg g^−1 soil h^−1. It also gave an N2O production ([2]; Soil B, 5 mol %, Day 21) of 0.000 ± 0.000 μg g^−1 soil h^−1, an N2O production ([2]; Soil C, 0.5 mol %, Day 1) of 0.119 ± 0.011 μg g^−1 soil h^−1 and an N2O production ([2]; Soil C, 0.5 mol %, Day 3) of 0.062 ± 0.001 μg g^−1 soil h^−1. It also gave an N2O production ([2]; Soil C, 0.5 mol %, Day 5) of 0.059 ± 0.007 μg g^−1 soil h^−1, an N2O production ([2]; Soil C, 0.5 mol %, Day 7) of 0.054 ± 0.006 μg g^−1 soil h^−1 and an N2O production ([2]; Soil C, 0.5 mol %, Day 14) of 0.119 ± 0.010 μg g^−1 soil h^−1. It also gave an N2O production ([2]; Soil C, 0.5 mol %, Day 21) of 0.107 ± 0.008 μg g^−1 soil h^−1, an N2O production ([2]; Soil C, 2.5 mol %, Day 1) of 0.042 ± 0.04 μg g^−1 soil h^−1 and an N2O production ([2]; Soil C, 2.5 mol %, Day 3) of 0.000 ± 0.000 μg g^−1 soil h^−1. For the same molecule, the N2O production ([2]; Soil C, 2.5 mol %, Day 5) was 0.011 ± 0.011 μg g^−1 soil h^−1, the N2O production ([2]; Soil C, 2.5 mol %, Day 7) was 0.031 ± 0.003 μg g^−1 soil h^−1 and the N2O production ([2]; Soil C, 2.5 mol %, Day 14) was 0.012 ± 0.008 μg g^−1 soil h^−1. For the same molecule, the N2O production ([2]; Soil C, 2.5 mol %, Day 21) was 0.019 ± 0.010 μg g^−1 soil h^−1, the N2O production ([2]; Soil C, 5 mol %, Day 1) was 0.017 ± 0.017 μg g^−1 soil h^−1 and the N2O production ([2]; Soil C, 5 mol %, Day 3) was 0.000 ± 0.000 μg g^−1 soil h^−1. The N2O production ([2]; Soil C, 5 mol %, Day 5) was 0.000 ± 0.000 μg g^−1 soil h^−1, the N2O production ([2]; Soil C, 5 mol %, Day 7) was 0.024 ± 0.013 μg g^−1 soil h^−1 and the N2O production ([2]; Soil C, 5 mol %, Day 14) was 0.023 ± 0.007 μg g^−1 soil h^−1. For the same molecule, the N2O production ([2]; Soil C, 5 mol %, Day 21) was 0.000 ± 0.000 μg g^−1 soil h^−1, the N2O production ([2]; Soil D, 0.5 mol %, Day 1) was 0.029 ± 0.029 μg g^−1 soil h^−1 and the N2O production ([2]; Soil D, 0.5 mol %, Day 3) was 0.058 ± 0.009 μg g^−1 soil h^−1. The N2O production ([2]; Soil D, 0.5 mol %, Day 5) was 0.004 ± 0.004 μg g^−1 soil h^−1, the N2O production ([2]; Soil D, 0.5 mol %, Day 7) was 0.037 ± 0.021 μg g^−1 soil h^−1 and the N2O production ([2]; Soil D, 0.5 mol %, Day 14) was 0.037 ± 0.005 μg g^−1 soil h^−1. The N2O production ([2]; Soil D, 0.5 mol %, Day 21) was 0.045 ± 0.014 μg g^−1 soil h^−1, the N2O production ([2]; Soil D, 2.5 mol %, Day 1) was 0.015 ± 0.010 μg g^−1 soil h^−1 and the N2O production ([2]; Soil D, 2.5 mol %, Day 3) was 0.020 ± 0.010 μg g^−1 soil h^−1. For the same molecule, the N2O production ([2]; Soil D, 2.5 mol %, Day 5) was 0.000 ± 0.000 μg g^−1 soil h^−1, the N2O production ([2]; Soil D, 2.5 mol %, Day 7) was 0.037 ± 0.018 μg g^−1 soil h^−1 and the N2O production ([2]; Soil D, 2.5 mol %, Day 14) was 0.000 ± 0.000 μg g^−1 soil h^−1. For the same molecule, the N2O production ([2]; Soil D, 2.5 mol %, Day 21) was 0.000 ± 0.000 μg g^−1 soil h^−1, the N2O production ([2]; Soil D, 5 mol %, Day 1) was 0.000 ± 0.000 μg g^−1 soil h^−1 and the N2O production ([2]; Soil D, 5 mol %, Day 3) was 0.027 ± 0.013 μg g^−1 soil h^−1. It also gave an N2O production ([2]; Soil D, 5 mol %, Day 5) of 0.000 ± 0.000 μg g^−1 soil h^−1, an N2O production ([2]; Soil D, 5 mol %, Day 7) of 0.020 ± 0.011 μg g^−1 soil h^−1 and an N2O production ([2]; Soil D, 5 mol %, Day 14) of 0.000 ± 0.000 μg g^−1 soil h^−1. For the same molecule, the N2O production ([2]; Soil D, 5 mol %, Day 21) was 0.000 ± 0.000 μg g^−1 soil h^−1, the N2O production ([2]; Soil E, 0.5 mol %, Day 1) was 0.007 ± 0.007 μg g^−1 soil h^−1 and the N2O production ([2]; Soil E, 0.5 mol %, Day 3) was 0.011 ± 0.011 μg g^−1 soil h^−1. The N2O production ([2]; Soil E, 0.5 mol %, Day 5) was 0.000 ± 0.000 μg g^−1 soil h^−1, the N2O production ([2]; Soil E, 0.5 mol %, Day 7) was 0.000 ± 0.000 μg g^−1 soil h^−1 and the N2O production ([2]; Soil E, 0.5 mol %, Day 14) was 0.000 ± 0.000 μg g^−1 soil h^−1. The N2O production ([2]; Soil E, 0.5 mol %, Day 21) was 0.000 ± 0.000 μg g^−1 soil h^−1, the N2O production ([2]; Soil E, 2.5 mol %, Day 1) was 0.008 ± 0.008 μg g^−1 soil h^−1 and the N2O production ([2]; Soil E, 2.5 mol %, Day 3) was 0.008 ± 0.008 μg g^−1 soil h^−1. It also gave an N2O production ([2]; Soil E, 2.5 mol %, Day 5) of 0.000 ± 0.000 μg g^−1 soil h^−1, an N2O production ([2]; Soil E, 2.5 mol %, Day 7) of 0.000 ± 0.000 μg g^−1 soil h^−1 and an N2O production ([2]; Soil E, 2.5 mol %, Day 14) of 0.000 ± 0.000 μg g^−1 soil h^−1. For the same molecule, the N2O production ([2]; Soil E, 2.5 mol %, Day 21) was 0.000 ± 0.000 μg g^−1 soil h^−1, the N2O production ([2]; Soil E, 5 mol %, Day 1) was 0.012 ± 0.012 μg g^−1 soil h^−1 and the N2O production ([2]; Soil E, 5 mol %, Day 3) was 0.000 ± 0.000 μg g^−1 soil h^−1. The N2O production ([2]; Soil E, 5 mol %, Day 5) was 0.000 ± 0.000 μg g^−1 soil h^−1, the N2O production ([2]; Soil E, 5 mol %, Day 7) was 0.000 ± 0.000 μg g^−1 soil h^−1 and the N2O production ([2]; Soil E, 5 mol %, Day 14) was 0.000 ± 0.000 μg g^−1 soil h^−1. For the same molecule, the N2O production ([2]; Soil E, 5 mol %, Day 21) was 0.000 ± 0.000 μg g^−1 soil h^−1, the N2O production rate ([2]; soil B, 0.5 mol % (lowest application rate), day 1) was 0.06 ng g^−1 soil h^−1 and the “amount of N2O” value ([2]; soil B, other than day 1 at the lowest application rate, over the duration of the experiment) was “below the detection limit”. The “N2O relative to the amount released from the uninhibited soil” value ([2]; soil C, 0.5 mol %) was 25%, the N2O produced ([2]; soil C, 0.5 mol %, across the duration of the incubation) was “about 0.12 ng h^1” and the “production of N2O” value ([2]; soil C, higher application rates (2.5 and 5 mol %)) was “nearly completely suppressed”. For the same molecule, the “slowing down of N2O production” value ([2]; soil D, 0.5 mol %) was 60%, the N2O production rate ([2]; soil D, two higher application rates (2.5 and 5 mol %), from the start of the experiment) was “practically zero” and the “N2O production beyond day 5” value ([2]; soil E, all 4-MPT treatments (0.5, 2.5, 5 mol %)) was “no N2O production was detected”.
